Reference: patent US20250255867A1 (Kadmon Corporation, LLC, priority 2022, published 2025)

Details: Cohort 1 200 mg QD
Protocol: All responses were assessed by the investigators.
Reported Adverse Events. […] All-cause mortality data collected during the study were assessed for all enrolled participants. Disease progression related death was not reported as AE.
Number of Participants With Treatment-emergent Adverse Events (TEAEs), and Treatment-emergent Serious Adverse Events (TESAEs). […] TEAEs included both SAEs and non-SAEs. […] Analysis was performed on safety population which included all participants who received at least 1 dose of study medication.

## CC(C)NC(=O)COc1cccc(-c2nc(Nc3ccc4[nH]ncc4c3)c3ccccc3n2)c1 [Belumosudil, 2-{3-[4-(1H-indazol-5-ylamino)-2-quinazolinyl]phenoxy}-N-(propan-2-yl) acetamide]
  SAE Lipomatosis, # events: 1
  SAE Lipomatosis, affected/at risk: 1/17
  SAE Metastases to meninges, # events: 1
  SAE Metastases to meninges, affected/at risk: 1/17
  SAE Muscular weakness, # events: 0
  SAE Muscular weakness, affected/at risk: 0/17
  SAE Myelodysplastic syndrome, # events: 0
  SAE Myelodysplastic syndrome, affected/at risk: 0/17
  SAE Non-cardiac chest pain, # events: 0
  SAE Non-cardiac chest pain, affected/at risk: 0/17
  SAE Obliterative bronchiolitis, # events: 1
  SAE Obliterative bronchiolitis, affected/at risk: 1/17
  SAE Pericardial effusion, # events: 0
  SAE Pericardial effusion, affected/at risk: 0/17
  SAE Pleural effusion, # events: 0
  SAE Pleural effusion, affected/at risk: 0/17
  SAE Pneumonia viral, # events: 0
  SAE Pneumonia viral, affected/at risk: 0/17
  SAE Pneumonia, # events: 2
  SAE Pneumonia, affected/at risk: 1/17
  SAE Pregnancy of partner, # events: 0
  SAE Pregnancy of partner, affected/at risk: 0/17
  SAE Proteinuria, # events: 1
  SAE Proteinuria, affected/at risk: 1/17
  SAE Respirovirus test positive, # events: 0
  SAE Respirovirus test positive, affected/at risk: 0/17
  SAE Small intestinal obstruction, # events: 0
  SAE Small intestinal obstruction, affected/at risk: 0/17
  SAE Stenotrophomonas infection, # events: 0
  SAE Stenotrophomonas infection, affected/at risk: 0/17
  SAE Urinary retention, # events: 0
  SAE Urinary retention, affected/at risk: 0/17
  SAE Urinary tract infection, # events: 0
  SAE Urinary tract infection, affected/at risk: 0/17
  SAE Varicella zoster virus infection, # events: 0
  SAE Varicella zoster virus infection, affected/at risk: 0/17
  SAE total, affected/at risk: 5/17
  Sinus pain: # Events: 2
  Sinus pain: Affected/At Risk: 2/17
  Sinus pain: Affected/At Risk (%): (11.76%)
  Sinusitis: # Events: 1
  Sinusitis: Affected/At Risk: 1/17
  Sinusitis: Affected/At Risk (%): (5.88%)
  Skin abrasion: # Events: 0
  Skin abrasion: Affected/At Risk: 0/17
  Skin abrasion: Affected/At Risk (%): (0%)
  Skin lesion: # Events: 0
  Skin lesion: Affected/At Risk: 0/17
  Skin lesion: Affected/At Risk (%): (0%)
  Skin papilloma: # Events: 1
  Skin papilloma: Affected/At Risk: 1/17
  Skin papilloma: Affected/At Risk (%): (5.88%)
  Spinal compression fracture: # Events: 1
  Spinal compression fracture: Affected/At Risk: 1/17
  Spinal compression fracture: Affected/At Risk (%): (5.88%)
  Squamous cell carcinoma of skin: # Events: 0
  Squamous cell carcinoma of skin: Affected/At Risk: 0/17
  Squamous cell carcinoma of skin: Affected/At Risk (%): (0%)
  Stomatitis: # Events: 2
  Stomatitis: Affected/At Risk: 1/17
  Stomatitis: Affected/At Risk (%): (5.88%)
  Superior vena cava syndrome: # Events: 0
  Superior vena cava syndrome: Affected/At Risk: 0/17
  Superior vena cava syndrome: Affected/At Risk (%): (0%)
  Tachycardia: # Events: 0
  Tachycardia: Affected/At Risk: 0/17
  Tachycardia: Affected/At Risk (%): (0%)
  Tendonitis: # Events: 0
  Tendonitis: Affected/At Risk: 0/17
  Tendonitis: Affected/At Risk (%): (0%)
  Testicular pain: # Events: 1
  Testicular pain: Affected/At Risk: 1/17
  Testicular pain: Affected/At Risk (%): (5.88%)
  Testicular swelling: # Events: 1
  Testicular swelling: Affected/At Risk: 1/17
  Testicular swelling: Affected/At Risk (%): (5.88%)
  Thoracic spinal stenosis: # Events: 1
  Thoracic spinal stenosis: Affected/At Risk: 1/17
  Thoracic spinal stenosis: Affected/At Risk (%): (5.88%)
  Thrombocytopenia: # Events: 0
  Thrombocytopenia: Affected/At Risk: 0/17
  Thrombocytopenia: Affected/At Risk (%): (0%)
  Thrombocytosis: # Events: 1
  Thrombocytosis: Affected/At Risk: 1/17
  Thrombocytosis: Affected/At Risk (%): (5.88%)
  Tinea pedis: # Events: 0
  Tinea pedis: Affected/At Risk: 0/17
  Tinea pedis: Affected/At Risk (%): (0%)
  Tooth fracture: # Events: 0
  Tooth fracture: Affected/At Risk: 0/17
  Tooth fracture: Affected/At Risk (%): (0%)
  Total Other Adverse Events: Affected/At Risk: 17/17
  Total Other Adverse Events: Affected/At Risk (%): (100%)
  Transfusion reaction: # Events: 1
  Transfusion reaction: Affected/At Risk: 1/17
  Transfusion reaction: Affected/At Risk (%): (5.88%)
  Tremor: # Events: 3
  Tremor: Affected/At Risk: 2/17
  Tremor: Affected/At Risk (%): (11.76%)
  Type 2 diabetes mellitus: # Events: 1
  Type 2 diabetes mellitus: Affected/At Risk: 1/17
  Type 2 diabetes mellitus: Affected/At Risk (%): (5.88%)
  Ulcerative keratitis: # Events: 0
  Ulcerative keratitis: Affected/At Risk: 0/17
  Ulcerative keratitis: Affected/At Risk (%): (0%)
  Upper respiratory tract infection: # Events: 16
  Upper respiratory tract infection: Affected/At Risk: 9/17
  Upper respiratory tract infection: Affected/At Risk (%): (52.94%)
  Upper-airway cough syndrome: # Events: 0
  Upper-airway cough syndrome: Affected/At Risk: 0/17
  Upper-airway cough syndrome: Affected/At Risk (%): (0%)
  Urinary retention: # Events: 0
  Urinary retention: Affected/At Risk: 0/17
  Urinary retention: Affected/At Risk (%): (0%)
  Urinary tract infection: # Events: 0
  Urinary tract infection: Affected/At Risk: 0/17
  Urinary tract infection: Affected/At Risk (%): (0%)
  Urinary tract pain: # Events: 0
  Urinary tract pain: Affected/At Risk: 0/17
  Urinary tract pain: Affected/At Risk (%): (0%)
  Urine output decreased: # Events: 1
  Urine output decreased: Affected/At Risk: 1/17
  Urine output decreased: Affected/At Risk (%): (5.88%)
  Vascular access complication: # Events: 0
  Vascular access complication: Affected/At Risk: 0/17
  Vascular access complication: Affected/At Risk (%): (0%)
  Vertigo: # Events: 2
  Vertigo: Affected/At Risk: 2/17
  Vertigo: Affected/At Risk (%): (11.76%)
  Vision blurred: # Events: 0
  Vision blurred: Affected/At Risk: 0/17
  Vision blurred: Affected/At Risk (%): (0%)
  Vomiting: # Events: 4
  Vomiting: Affected/At Risk: 2/17
  Vomiting: Affected/At Risk (%): (11.76%)
  Weight decreased: # Events: 1
  Weight decreased: Affected/At Risk: 1/17
